The text below walks through data of US20100161239A1, “QU[…]” (VICRO BVBA, priority 2003, published 2010).

The structures appear in SMILES notation.

For assay [1], the system named is one HIV-1 sample. In words: Phenotypic antiviral experiment (as described in WO97/27480), fold change in IC50/EC50 relative to reference wild-type virus. Particulars: fold change in IC50 or EC50 relative to reference wild-type virus. In kind it is cell-based. The method, then: (§1) For the purposes of the invention, the mutations identified should be associated with resistance or susceptibility to drug therapy, for example an antiretroviral drug. The degree to which a particular mutation pattern may affect resistance may be determined by one of skill in the art, for example, using the phenotypic resistance monitoring assay such as, the ANTIVIROGRAM® (Virco, Belgium) (see WO97/27480). In this methodology, resistance is determined with respect to a laboratory reference strain HIVLAI/IIIB. The difference in IC50 (the concentration of drug required to reduce the virus' growth in cell culture by 50%) between the patient sample and the reference viral strain is determined as a quotient. This fold change in IC50 is reported and indicative of the resistance profile of a certain drug. Based on the changes in IC50, cut-off values have been established to distinguish a sample from being sensitive or resistant to a certain drug.
The results were expressed in FR, or fold change in IC50 or EC50, relative to reference wild-type virus, which is the drug concentration at which 50% of the enzyme activity is inhibited, and is expressed in μM units. The FR cutoffs values for normal susceptible ranges were 8, 10, and 6, for nevirapine, delavirdine, and efavirenz, respectively.
The phenotypic antiviral experiment was taken as the gold-standard by the inventors. Said phenotypic antiviral experiment was performed as described in WO97/27480.

Assay [2] deals with HIV virus strains 1-4. Nature of the assay: Measured phenotype (pFR = -log fold resistance), censored values, genotype/phenotype dataset. The settings on record: pFR = -log(FR). Type of assay: cell-based. The method, then: as §1
The phenotypes are presented as pFR values, where pFR is equal to −log(FR), where FR denotes the Fold Resistance. Negative pFR values thus denote resistance and positive values denote hyper-susceptibility. For example, a pFR value of −1.0 is equal to 10-fold resistance.
The used dataset consists of a set of matching genotype/phenotype measurements with possible multiple phenotype measurements per genotype. The mutations are defined relative to HXB2 at amino acid level. The phenotypes are presented as pFR values, which is equal to −log(FR), where FR denotes the Fold Resistance.
In this example, the method developed by the inventors to deal with censored values was applied for the drug amprenavir. Firstly, a linear regression model without censored values was calculated, see the values ‘APV_pFR’ for iteration 0 in the Tables 18-21 below. The phenotypic measured value is <−2.083062017 for Virus strain 1, for the first iteration, the value V0 is equal to the measured phenotype value APV_pFR, but the censor is considered as ‘=’. This was followed by iteration nr. 1. Once the values were obtained from iteration 1, the inventors compared the prediction value P, e.g. for Virus strain 1, −2.362076895 with the phenotypic measured value <−2.083062017. For virus strains 1, 2 and 3 below, the measured values have a censor ‘<’. For virus strains 4, the measured value has a censor ‘>’. The scenarios established by the inventors, when the case was ‘<’-censor, and when the case was ‘>’-censor, were applied. New linear regression models were calculated and for the censored values in the linear regression model, either the data-points from the training set were removed, as for virus strains 1, 2 and for virus strain 4 (iteration 2 and 3 only), or those data-points were used instead of the censored phenotypes measurement, as illustrated for virus strain 3 and for virus strain 4 (only iteration 1). The procedure was reiterated until the prediction converged.

As to `Cc1ccnc2c1NC(=O)c1cccnc1N2C1CC1` [Nevirapine], the “FR (phenotypic antiviral experiment)” value in assay [1] was more than 89.

For `CC(C)Nc1cccnc1N1CCN(C(=O)c2cc3cc(NS(C)(=O)=O)ccc3[nH]2)CC1` [delavirdine], the “FR (phenotypic antiviral experiment)” value in assay [1] is 3.7.

On to `CC(C)CN(C[C@@H](O)[C@H](Cc1ccccc1)NC(=O)O[C@H]1CCOC1)S(=O)(=O)c1ccc(N)cc1` [APV, amprenavir], for which the “APV_pFR (phenotypic measured value)” value is recorded as less than −2.083 in assay [2] (Virus strain 1, censor '<'); less than −2.083 in assay [2] (Virus strain 1, censor '<', listed as amprenavir); less than −1.909 in assay [2] (Virus strain 2, censor '<'); less than −1.957 in assay [2] (Virus strain 3, censor '<'); more than 0.5154 in assay [2] (Virus strain 4, censor '>').

Regarding `O=C1Nc2ccc(Cl)cc2[C@@](C#CC2CC2)(C(F)(F)F)O1` [efavirenz], in assay [1], the “FR (phenotypic antiviral experiment)” value is 17.5.
